Data from US4259336A, “4-Hydroxy-2H-[1]-benzothieno [2,3-e]-1,2-thiazine-3-carboxamide-1,1-dioxides and salts thereof” (Boehringer Ingelheim GmbH, priority 1978, dated 1981).
Read-outs that look alike come from different tables or passages of the source.

How the values were obtained:
[1] = tested on: thrombocyte aggregation in platelet-rich plasma of healthy test persons (collagen); experiment: Inhibition of blood-platelet aggregation (Born test), collagen-induced, platelet-rich plasma; format: cell-based, healthy test persons (human); conditions: Homo sapiens, read-out: Percentage change in light permeability of plasma (Born test); for inhibition at 20 µM: 2.10^-5 mol/liter; for inhibition at 2 µM: 2.10^-6 mol/liter; for inhibition at 0.2 µM: 2.10^-7 mol/liter; for inhibition at 1 µM: 10^-6 mol/liter
Method: The decrease in the optical density of platelet suspensions was measured photometrically and recorded after the addition of collagen. From the angle of inclination of the density curve the velocity of aggregation was estimated. The optical density was taken as the point on the curve where the most light was transmitted. The doses of collagen were chosen so as to be sufficient to produce irreversible aggregation. […] Commercial collagen sold by Hormonchemie, Munich, Germany, was used.

[2] = biological target: T1, prostaglandin synthetases (Bos taurus, UniProt O62664); experiment: Anti-inflammatory activity: inhibition of prostaglandin biosynthesis (prostaglandin synthetases, microsomal extract from bovine seminal vesicles); format: biochemical; conditions: 14C-arachidonic acid substrate, read-out: EC50 in mol (50% decrease in the amount of prostaglandins)
T1 construct: isolated as a microsomal extract from bovine seminal vesicles; from tissue; host or cells: bovine seminal vesicles (microsomal extract)
T1 sequence (O62664 25-600): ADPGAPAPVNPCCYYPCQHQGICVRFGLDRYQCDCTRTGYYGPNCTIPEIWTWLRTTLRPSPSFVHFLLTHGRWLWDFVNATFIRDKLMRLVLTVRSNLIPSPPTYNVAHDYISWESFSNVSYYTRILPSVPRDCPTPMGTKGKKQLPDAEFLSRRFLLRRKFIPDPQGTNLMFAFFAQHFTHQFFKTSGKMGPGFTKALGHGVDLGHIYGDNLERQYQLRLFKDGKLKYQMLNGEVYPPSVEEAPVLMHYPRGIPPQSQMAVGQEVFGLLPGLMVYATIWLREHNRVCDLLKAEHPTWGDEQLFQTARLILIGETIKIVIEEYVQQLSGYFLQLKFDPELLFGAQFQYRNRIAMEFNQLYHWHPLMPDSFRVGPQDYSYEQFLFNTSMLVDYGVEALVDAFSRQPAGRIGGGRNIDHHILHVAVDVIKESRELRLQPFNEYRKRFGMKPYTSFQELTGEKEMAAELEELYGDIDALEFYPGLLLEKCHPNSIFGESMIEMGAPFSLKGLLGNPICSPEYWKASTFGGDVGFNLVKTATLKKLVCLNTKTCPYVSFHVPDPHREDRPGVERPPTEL
Method: Therefore, the anti-inflammatory activity was determined as the activity against the prostaglandin synthetases:
^14 C-arachidonic acid served as the substrate. The prostaglandins biosynthetisized therefrom were separated chromatographically from the ^14 C-arachidonic acid, and the remaining substrate and product were measured radiochemically.

rats = experiment: Acute toxicity, peroral, rats; format: in vivo; conditions: 100 mg/kg p.o., observed 24 hours
Method: (§1) The acute toxicity was determined in rats of both sexes (1:1) with a body weight of 120-150 gm. The test compound was perorally administered as a suspension in 1% methyl-cellulose (1 ml/100gm animal) by means of an esophageal sound.

[3] = Acute toxicity, peroral, rats; format: in vivo; conditions: rat, in vivo, po, suspension in 1% methyl-cellulose, observed 24 hours
Method: as §1

[4] = collagen, =% decrease in aggregation vs control
[5] = 10^-5 mol/liter, collagen, =% decrease in aggregation vs control

Question: Which results are given for `Cc1cccc(NC(=O)C2=C(O)c3sc4cc(Cl)ccc4c3S(=O)(=O)N2C)n1` [H, 7-Chloro-4-hydroxy-2-methyl-N-(6-methyl-2-pyridyl)-2H-[1] benzothieno [2,3-e]-1,2-thiazine-3-carboxamide-1,1-dioxide]?
Answer: inhibition at 20 µM [1, 4]: 89%; inhibition at 2 µM [1, 4]: 88%; inhibition at 0.2 µM [1, 4]: 33%

Question: Which EC50 ([2]; DMSO 2%) does the source give for `CN1C(C(=O)Nc2nc3ccccc3s2)=C(O)c2sc3ccccc3c2S1(=O)=O` [I, N-(2-Benzothiazolyl)-4-hydroxy-2-methyl-2H-[1] benzothieno [2,3-e]-1,2-thiazine-3-carboxamide-1,1-dioxide] here?
Answer: 22 nM

Question: What about the animals died (rats) of the same compound?
Answer: 0 out of 10

Question: What about the LD50 at 24 h [3] of the same compound?
Answer: > 100 mg/kg

Question: With `Cc1ccnc(NC(=O)C2=C(O)c3sc4cc(Cl)ccc4c3S(=O)(=O)N2C)c1` [G, 7-Chloro-4-hydroxy-2-methyl-N-(4-methyl-2-pyridyl)-2H-[1]-benzothieno [2,3-e]-1,2-thiazine-3-carboxamide-1,1-dioxide] as the compound, how does the inhibition at 20 µM [1, 4] read?
Answer: 66%

Question: And the inhibition at 2 µM [1, 4]?
Answer: 33%

Question: Which EC50 ([2]; DMSO 2%) does the source give for `CN1C(C(=O)Nc2nccs2)=C(O)c2ccccc2S1(=O)=O` [W, Sudoxicam, reference compound] here?
Answer: 7000 nM

Question: Which EC50 ([2]; DMSO 2%) does the source give for `Cc1csc(NC(=O)C2=C(O)c3sc4ccccc4c3S(=O)(=O)N2C)n1` [C, 4-Hydroxy-2-methyl-N-(4-methyl-2-thiazolyl)-2H-[1] benzothieno [2,3-e]-1,2-thiazine-3-carboxamide-1,1-dioxide] here?
Answer: 21 nM

Question: And the inhibition at 10 µM [1, 5]?
Answer: 93%

Question: And the inhibition at 1 µM [1, 4]?
Answer: 57%

Question: And the animals died (rats)?
Answer: 0 out of 10

Question: And the LD50 at 24 h [3]?
Answer: > 100 mg/kg

Question: For `Cc1nc(NC(=O)C2=C(O)c3sc4ccccc4c3S(=O)(=O)N2C)sc1C` [K, N-(4,5-Dimethyl-2-thiazolyl)-4-hydroxy-2-methyl-2H-[1]-benzothieno [2,3-e]-1,2-thiazine-3-carboxamide-1,1-dioxide], which EC50 ([2]; DMSO 10%) is on record?
Answer: 250 nM

Question: What about the animals died (rats) of the same compound?
Answer: 0 out of 10

Question: What about the LD50 at 24 h [3] of the same compound?
Answer: > 100 mg/kg

Question: What does the source list for `Cc1ccc2c3c(sc2c1)C(O)=C(C(=O)Nc1cccc(C)n1)N(C)S3(=O)=O` [F, 2,7-Dimethyl-4-hydroxy-N-(6-methyl-2-pyridyl)-2H-[1]-benzothieno [2,3-e]-1,2-thiazine-3-carboxamide-1,1-dioxide]?
Answer: inhibition at 20 µM [1, 4]: 90%; inhibition at 2 µM [1, 4]: 77%; inhibition at 0.2 µM [1, 4]: 30%

Question: Which results are given for `CN1C(C(=O)Nc2ncc(Cl)s2)=C(O)c2sc3ccccc3c2S1(=O)=O` [J, N-(5-Chloro-2-thiazolyl)-4-hydroxy-2-methyl-2H-[1] benzothieno [2,3-e]-1,2-thiazine-3-carboxamide-1,1-dioxide]?
Answer: EC50 ([2]; DMSO 2%): 47 nM; animals died (rats): 0 out of 10; LD50 at 24 h [3]: > 100 mg/kg

Question: What does the source list for `Cc1ccnc(NC(=O)C2=C(O)c3sc4cc(C)ccc4c3S(=O)(=O)N2C)c1` [E, 2,7-Dimethyl-4-hydroxy-N-(4-methyl-2-pyridyl)-2H-[1]-benzothieno [2,3-e]-1,2-thiazine-3-carboxamide-1,1-dioxide]?
Answer: inhibition at 20 µM [1, 4]: 72%; inhibition at 2 µM [1, 4]: 34%

Question: What does the source list for `Cc1cccc(NC(=O)C2=C(O)c3sc4ccccc4c3S(=O)(=O)N2C)n1` [B, 4-Hydroxy-2-methyl-N-(6-methyl-2-pyridyl)-2H-[1] benzothieno [2,3-e]-1,2-thiazine-3-carboxamide-1,1-dioxide]?
Answer: inhibition at 4 µM ([1]; 4.10^-6 mol/liter, collagen, =% decrease in aggregation vs control): 100%; inhibition at 0.4 µM ([1]; 4.10^-7 mol/liter, collagen, =% decrease in aggregation vs control): 71%

Question: For `CC(=O)Oc1ccccc1C(=O)O` [V, Acetylsalicyclic acid, reference compound], which inhibition at 10 µM [1] is on record?
Answer: 13%

Question: What about the inhibition at 30 µM [1] of the same compound?
Answer: 45%

Question: What does the source list for `Cc1ccnc(NC(=O)C2=C(O)c3sc4ccccc4c3S(=O)(=O)N2C)c1` [D, 4-Hydroxy-2-methyl-N-(4-methyl-2-pyridyl)-2H-[1]-benzothieno-[2,3-e]-1,2-thiazine-3-carboxamide-1,1-dioxide]?
Answer: inhibition at 20 µM [1, 4]: 88%; inhibition at 2 µM [1, 4]: 60%; inhibition at 0.2 µM [1, 4]: 19%

Question: Which EC50 ([2]; DMSO 2%) does the source give for `CN1C(C(=O)Nc2nccs2)=C(O)c2sc3ccccc3c2S1(=O)=O` [A, 4-Hydroxy-2-methyl-N-(2-thiazolyl)-2H-[1] benzothieno-[2,3-e]-1,2-thiazine-3-carboxamide-1,1-dioxide] here?
Answer: 39 nM

Question: What about the inhibition at 10 µM [1, 5] of the same compound?
Answer: 94%

Question: What about the inhibition at 1 µM [1, 4] of the same compound?
Answer: 73%

Question: And the inhibition at 0.1 µM ([1]; 10^-7 mol/liter, collagen, =% decrease in aggregation vs control)?
Answer: 14%

Question: What about the animals died (rats) of the same compound?
Answer: 0 out of 10

Question: And the LD50 at 24 h [3]?
Answer: > 100 mg/kg
